The source of these data is article PMC6445168, “Design, synthesis and antimalarial activity of novel bis{N-[(pyrrolo[1,2-a]quinoxalin-4-yl)benzyl]-3-aminopropyl}amine derivatives” (Journal of Enzyme Inhibition and Medicinal Chemistry, 2017).

Counter-ions that a name gives are not always drawn. Like-named read-outs stand apart in the source and are kept apart here.

Data set [1] concerns Plasmodium telomeric quadruplex FPf1T. Nature of the data set: FRET melting experiments, FPf1T. Type of data set: binding, Plasmodium falciparum. The conditions noted are these: compound at 5 μM, 200 nM oligonucleotide, K+ condition; result in words. How it is done:
(§1) FRET melting experiments were performed with dual-labeled oligonucleotides mimicking the Plasmodium telomeric sequences FPf1T [FAM-^5′(GGGTTTA)3-GGG^3′-TAMRA] and FPf8T [FAM-^5′(GGGTTCA)3GGG^3′-TAMRA] and the human telomeric sequence F21T [FAM-(GGGTTA)3-GGG^3′- TAMRA][36]^,[43]. The oligonucleotides were prefolded in 10 mM lithium cacodylate buffer (pH 7.2), with 10 mM KCl and 90 mM LiCl (K^+ condition). […] The data obtained were normalized between 0 and 1, and the temperature required for half-denaturationof oligonucleotides corresponded to the emission value of 0.5 was calculated as ΔTm. Each experiment was performed in duplicate with 200 nM of labeled oligonucleotide and 0, 1, 2, or 5 μM of compound under K^+ condition. For each compound, two independent experiments were carried out. The data were plotted using OriginPro 9.1 software (OriginLab Corporation, Northampton, MA).

Data set [2] concerns P. falciparum CQ-resistant strain W2. Nature of the data set: In vitro antiplasmodial activity, SYBR Green I fluorescence-based method, W2 strain. It is filed as cell-based, Plasmodium falciparum. To be noted: for IC50: Plasmodium falciparum, read-out: P. falciparum strains IC50 values, W2; for Selectivity Index HepG2/W2: ratio CC50 HepG2 / IC50 W2. How it is done: (§2) The in vitro antiplasmodial activities were tested over concentrations ranging from 39 nM to 40 μM against culture-adapted Plasmodium falciparum reference strains 3D7 and W2. […] The parasites were cultivated in RPMI medium (Sigma-Aldrich, Lyon, France) supplemented with 0.5% Albumax I (Life Technologies corporation, Paisley, United Kingdom), hypoxanthine (Sigma-Aldrich), gentamicin (Sigma-Aldrich), and human erythrocytes and were incubated at 37 °C in a candle jar, as described previously. The P. falciparum drug susceptibility test was carried out in 96-well flat bottom sterile plates under a final volume of 250 μL. After a 48 h incubation with the drugs, quantities of DNA in treated and control cultures of parasites in human erythrocytes were compared according to the SYBR Green I (Sigma-Aldrich) fluorescence-based method[38]^,[39]. Briefly, after incubation, plates were frozen at -20 °C until use. They were then left to thaw for 2 h at room temperature and 100 μL of the homogenized culture were transferred to 96-well flat bottom sterile black plates (Nunc Inc) already containing 100 μL of the SYBR Green I lysis buffer (2xSYBR Green, 20 mM Tris base pH 7.5, 5 mM EDTA, 0.008% w/v saponin, 0.08% w/v Triton X-100). […] Plates were incubated for 1 h at room temperature and then read on a fluorescence plate reader (Tecan, Austria) using excitation and emission wavelengths of 485 and 535 nm, respectively.

Data set [3] relates to P. falciparum CQ-sensitive strain 3D7. The data set is described as follows: In vitro antiplasmodial activity, SYBR Green I fluorescence-based method, 3D7 strain. The conditions noted are these: for IC50: Plasmodium falciparum, 3D7, 48 h, read-out: P. falciparum strains IC50 values, 3D7; for Selectivity Index HepG2/3D7: ratio CC50 HepG2 / IC50 3D7. Type of data set: cell-based, Plasmodium falciparum. The procedure:
as §2

The test system of data set [4] is human telomeric quadruplex F21T. Nature of the data set: FRET melting experiments, F21T. Type of data set: binding. The conditions noted are these: compound at 5 μM, 200 nM oligonucleotide, K+ condition; result in words. How it is done:
as §1

Data set [5] concerns Plasmodium telomeric quadruplex FPf8T. The data set is described as follows: FRET melting experiments, FPf8T. Type of data set: binding, Plasmodium falciparum. The conditions noted are these: compound at 5 μM, 200 nM oligonucleotide, K+ condition; result in words. The procedure:
as §1

Data set [6] relates to L. donovani (MHOM/IN/00/DEVI) promastigotes. Nature of the data set: In vitro antileishmanial activity on promastigotes, MTT assay. It is filed as cell-based. To be noted: Leishmania donovani, 72 h incubation, mean ± SD of three independent experiments. How it is done:
L. donovani (MHOM/IN/00/DEVI) used in this study was provided by the CNR Leishmania (Montpellier, France). The effects of the tested compounds on the growth of L. donovani (MHOM/IN/00/DEVI)promastigotes were assessed by MTT assay[41] .Briefly, promastigotes in log-phase in Schneider′s medium supplemented with 20% fetal calf serum (FCS), 2 mM L-glutamine and antibiotics (100 U/mL penicillin and 100 μg/mL streptomycin), were incubated at an average density of 10^6 parasites/mL in sterile 96-well plates with various concentrations of compounds dissolved in DMSO (final concentration less than 0.5% v/v), in duplicate. Appropriate controls treated by DMSO and pentamidine or amphotericin B (reference drugs purchased from Sigma-Aldrich) were added to each set of experiments. After a 72 h incubation period at 27 °C, parasite metabolic activity was determined. Each plate-well was then microscope-examined for detecting possible precipitate formation. 20 μL of MTT 3–(4,5-dimethylthiazol-2-yl)-2,5-diphenyltetrazolium bromide) solution (5 mg/mL) were added to each well followed by incubation for another 4 h. The enzyme reaction was then stopped by addition of 100 μL of 50% isopropanol – 10% sodium dodecyl sulfate[42] .Plates were shaken vigorously (300 rpm) for 10 minutes and the absorbance measured in a plate reader at 570 nm in a BIO-TEK ELx808 Absorbance Microplate Reader. […] IC50 were calculated by non-linear regression analysis processed on doseresponse curves, using TableCurve 2D V5.0 software. IC50 values represent the mean value calculated from three independent experiments.
A general note: Tetrazolium dyes change colour on reduction, which living cells bring about.

The nature of data set [7]: Cytotoxicity evaluation, MTT assay. Type of data set: cell-based, human. The conditions noted are these: human, HepG2 cells (hepatocarcinoma cell line, ATCC HB-8065); HepG2, 72 h incubation, mean ± SD of three independent experiments. The procedure: (§3) These assays were performed toward the human HepG2 cell line (HepG2 CC50). […] These cells express many of the hepatocyte-specific metabolic enzymes, thus enabling the cytotoxicity of tested product metabolites to be evaluated. […] Duplicate assays were performed for each sample. Each plate-well was then microscope-examined for detecting possible precipitate formation before the medium was aspirated from the wells. 100 μL of MTT solution (0.5 mg/mL in medium without FCS) were then added to each well. […] After this time, the MTT solution was removed and DMSO (100 μL) was added to dissolve the resulting blue formazan crystals. Plates were shaken vigorously (300 rpm) for 5 minutes. The absorbance was measured at 570 nm with 630 nm as reference wavelength spectrophotometer using a BIO-TEK ELx808 Absorbance Microplate Reader. DMSO was used as blank and doxorubicin (Sigma Aldrich) as positive control. Cell viability was calculated as percentage of control (cells incubated without compound). The 50% cytotoxic concentration was determined from the dose-response curve by using the TableCurve 2D V5.0 software (Systat Software, San Jose, CA).

For another data set, the system named is HepG2 cell line. Nature of the data set: Cytotoxicity evaluation, MTT assay. It is filed as cell-based, human. The conditions noted are these: HepG2, 72 h incubation, mean ± SD of three independent experiments. The procedure: as §3
[8] abbreviates: chloroquine-resistant strain W2, 48 h incubation.
[9] abbreviates: chloroquine-sensitive strain 3D7, 48 h incubation.

Usually IC50 stands for the concentration that gives 50% inhibition. For the compound `CCN(CC)CCCC(C)Nc1ccnc2cc(Cl)ccc12` (centres unmarked) [Chloroquine, reference compound], the “Thermal stabilization (ΔTm) on FPf1T” value in data set [1] is “very slight stabilization”. The IC50 amounted to 0.2 ± 0.03 µM in [2] (W2, 48 h) and 0.08 ± 0.003 µM in data set [3]. Further, in data set [4], the “Thermal stabilization (ΔTm) on F21T” value is “very slight stabilization”. The “Thermal stabilization (ΔTm) on FPf8T” value in data set [5] was “very slight stabilization”.
Usually melting point stands for the temperature, or range, at which the solid turns liquid. `COc1ccc2nc(-c3ccc(CNCCCN(C)CCCNCc4ccc(-c5nc6ccc(OC)cc6n6cccc56)cc4)cc3)c3cccn3c2c1` (as salt: ammonium) [1f, Bis{N-[4–(8-methoxypyrrolo[1,2-a]quinoxalin-4-yl)benzyl]-3-aminopropyl}methylamine] returned a melting point of 240 to 242 °C.
A word on the CC50: it is the concentration that lowers cell viability or growth by half. On to `COc1ccc2c(c1)nc(-c1ccc(CNCCCN3CCN(CCCNCc4ccc(-c5nc6cc(OC)ccc6n6cccc56)cc4)CC3)cc1)c1cccn12` [1e, Bis{N-[4–(7-methoxypyrrolo[1,2-a]quinoxalin-4-yl)benzyl]-3-aminopropyl}piperazine], for which the “Thermal stabilization (ΔTm) on FPf1T” value in [1] is given as “more active on the Plasmodium sequences with the higher ΔTm”. The figures for the IC50 in data set [6], in data set [2] (setting [8]) and in [3] (setting [9]) were 2.52 ± 0.1 µM, 0.21 ± 0.03 µM and 2.62 ± 0.25 µM, respectively. In data set [2], the “Selectivity Index HepG2/W2” value is reported as 6.95. This compound also came in with a CC50 at 72 h in data set [7] of 1.46 ± 0.6 µM. Also, the “Selectivity Index HepG2/3D7” value in [3] was 0.56. Moreover, in [5], the “Thermal stabilization (ΔTm) on FPf8T” value is given as “more active on the Plasmodium sequences with the higher ΔTm”.
For the compound `OC(c1cc(C(F)(F)F)nc2c(C(F)(F)F)cccc12)C1CCCCN1` (centres unmarked) [Mefloquine, reference compound], the “Thermal stabilization (ΔTm) on FPf1T” value in data set [1] is “very slight stabilization”. Moreover, the IC50 in data set [2] (setting [8]) was found to be 0.032 ± 0.001 µM; in data set [3] (setting [9]), 0.08 ± 0.008 µM. Besides, the “Thermal stabilization (ΔTm) on F21T” value in data set [4] is reported as “very slight stabilization”. Besides, the “Thermal stabilization (ΔTm) on FPf8T” value in data set [5] is “very slight stabilization”.
The compound `CCOc1ccn2c1c(-c1ccc(CNCCCN3CCN(CCCNCc4ccc(-c5nc6ccccc6n6ccc(OCC)c56)cc4)CC3)cc1)nc1ccccc12` (as salt: ammonium) [1k, Bis{N-[4–(3-ethoxypyrrolo[1,2-a]quinoxalin-4-yl)benzyl]-3-aminopropyl}piperazine] registered a melting point of 218 to 220 °C.
Still for that read-out and setting: in the case of `COc1ccc2nc(-c3cccc(CNCCCN4CCN(CCCNCc5cccc(-c6nc7ccc(OC)cc7n7cccc67)c5)CC4)c3)c3cccn3c2c1` (as salt: ammonium) [1p, Bis{N-[3–(8-methoxypyrrolo[1,2-a]quinoxalin-4-yl)benzyl]-3-aminopropyl}piperazine] it was 234 to 237 °C.
As for `COc1cccc2nc(-c3ccc(CNCCCN4CCN(CCCNCc5ccc(-c6nc7cccc(OC)c7n7cccc67)cc5)CC4)cc3)c3cccn3c12` [1i, Bis{N-[4–(9-methoxypyrrolo[1,2-a]quinoxalin-4-yl)benzyl]-3-aminopropyl}piperazine], the “Thermal stabilization (ΔTm) on FPf1T” value in [1] is “more active on the Plasmodium sequences with the higher ΔTm”. Further, the results for the IC50 in data set [6], in [2] (setting [8]) and in data set [3] (setting [9]) were 1.58 ± 0.1 µM, 0.32 ± 0.04 µM and 1.28 ± 0.1 µM, respectively. Moreover, the “Selectivity Index HepG2/W2” value in data set [2] is 4.16. The compound also showed a CC50 at 72 h in data set [7] of 1.33 ± 0.3 µM. For the same compound, the “Selectivity Index HepG2/3D7” value in data set [3] was 1.04. Also, in data set [5], the “Thermal stabilization (ΔTm) on FPf8T” value is given as “more active on the Plasmodium sequences with the higher ΔTm”.
In the case of `N=C(N)c1ccc(OCCCCCOc2ccc(C(=N)N)cc2)cc1` [Pentamidine, reference compound], in data set [6], the IC50 came out at 5.5 ± 0.8 µM. In addition, the CC50 in the data set with HepG2 cell line is 2.3 ± 0.5 µM.
Regarding `CN(CCCNCc1cccc(-c2nc3ccccc3n3cccc23)c1)CCCNCc1cccc(-c2nc3ccccc3n3cccc23)c1` (as salt: ammonium) [1m, Bis{N-[3-(pyrrolo[1,2-a]quinoxalin-4-yl)benzyl]-3-aminopropyl}methylamine], the melting point lay within 209 to 211 °C.
